Literature values, collected in patent US9510613B2, “Panaxadiol-containing composition” (LION CORPORATION, priority 2011, dated 2016).

conditions: commercial component, Table 3

Question: Which HLB does the source give for Glycerin Monostearate Citrate here?
Answer: The HLB was 9.5.

Question: For Sucrose Lauric Acid Ester, which HLB is on record?
Answer: The HLB was 16.

Question: Which HLB does the source give for Sucrose Myristic Acid Ester here?
Answer: Its HLB is 16.

Question: Which HLB does the source give for Sucrose Palmitic Acid Ester here?
Answer: The HLB was 16.

Question: For Sucrose Stearic Acid Ester, which HLB is on record?
Answer: Its HLB is 16.
